Measured values as given in patent US6977252B1, “Use of 1,4-benzothiazepine derivatives as drugs for overcoming resistance to anticancer drugs” (Noboru Kaneko, priority 1999, dated 2005).
Read-outs that look alike come from different tables or passages of the source.

How the values were obtained:
[1] = test system: PC-14/CDDP cisplatin tolerant cell line; assay: MTT cell growth inhibition by anticancer drug with or without compound 1, PC-14/CDDP; type: cell-based, human; conditions: for IC50: PC-14/CDDP, MTT, read-out: 50% cell growth inhibiting concentration (IC50) of anticancer drug
Protocol: (§1) PC-14 as a human non-small cell lung cancer cell line and PC-14/CDDP as a cisplatin tolerant cell line thereof were used to examine an effect of overcoming each resistance to cisplatin, carboplatin, nedaplatin and taxol. PC-14 and PC-14/CDDP were made into a single cell in BPMI 1640 medium by trypsinization or by using a cell scraper, and prepared a cell suspension of 100 cells per 15 μl. The compound 1 dissolved in dimethyl sulfoxide was added therein to make final concentration of 10 μm, and then the resulting liquid was poured into a 96-perforated plate at 150 μl per well. An anticancer drug was dissolved in sterilized distilled water. The resulting liquid of 150 μl per well was poured into the first row to transfer in turn from the second row to the next rows by 150 μl for each raw so as to form two-fold dilution rows. A group without the cells was prepared as a negative control, and a group without the anticancer drug and the compound I was prepared as a positive control. After culturing at 37° C. under carbon dioxide having a concentration of 5% and saturated vapor for 96 hours, an MTT [3-(4,5-dimethylthiazol-2-yl)-2,5-diphenyltetrazolium bromide] reagent of 20 μl dissolved in D-PBS (−) at a concentration of 5 mg/ml was added to each of the groups, and the resulting liquid was cultured for another 4 hours at 37° C. After the completion of the culture, the entire plate was centrifuged, and the supernatant was removed. Dimethyl sulfoxide of 200 μl was added to dissolve formazan crystal generated by enzyme activities of mitochondria in the cells. Then, absorbed light of 562–630 nm was determined by using a multiplate reader. Given that the average growth rate of the negative control is 0% and the average growth rate of the positive control is 100%, a dose-growth curve was plotted to calculate […] cell growth inhibiting concentration (IC50).

[2] = test system: PC-14 human non-small cell lung cancer cell line; assay: MTT cell growth inhibition by anticancer drug with or without compound 1, PC-14; type: cell-based; conditions: read-out: 50% cell growth inhibiting concentration (IC50) of anticancer drug
Protocol: as §1

[3] = test system: K562 human promyelocytic leukemia cell line; assay: MTT cell growth inhibition by adriamycin with or without compound 1, K562; type: cell-based
Protocol: PC-14 as a human non-small cell lung cancer cell line and PC-14/CDDP as a cisplatin tolerant cell line thereof were used to examine an effect of overcoming each resistance to cisplatin, carboplatin, nedaplatin and taxol. PC-14 and PC-14/CDDP were made into a single cell in BPMI 1640 medium by trypsinization or by using a cell scraper, and prepared a cell suspension of 100 cells per 15 μl. The compound 1 dissolved in dimethyl sulfoxide was added therein to make final concentration of 10 μm, and then the resulting liquid was poured into a 96-perforated plate at 150 μl per well. An anticancer drug was dissolved in sterilized distilled water. The resulting liquid of 150 μl per well was poured into the first row to transfer in turn from the second row to the next rows by 150 μl for each raw so as to form two-fold dilution rows. A group without the cells was prepared as a negative control, and a group without the anticancer drug and the compound I was prepared as a positive control. […] Then, absorbed light of 562–630 nm was determined by using a multiplate reader. […]

[4] = test system: K562/ADM adriamycin resistant cell line; assay: MTT cell growth inhibition by adriamycin with or without compound 1, K562/ADM; type: cell-based, human; conditions: for IC50: Homo sapiens, K562, K562/ADM, read-out: 50% cell growth inhibiting concentration (IC50) of adriamycin
Protocol: as §1
K562 as a human […] cell line and K562/ADM as an adriamycin resistant cell line thereof were used to examine the effect of overcoming the resistance to adriamycin. […]

[5] = test system: GB-1 human glioblastoma cell and U87-GM cell; conditions: GB-1 cell and U87-GM cell; cited from earlier work
PC-14/CDDP tumor = assay: Tumor growth in nude mice implanted with PC-14/CDDP; type: in vivo, nude mice BALB/c nu/nu; conditions: for lowest T/C / Tumor growth rate GR: PC-14/CDDP; for Tumor growth rate GR: 11th
Protocol: (§2) Female nude mice BALB/c nu/nu (6-week-old) were implanted subcutaneously in each back with 2×10^7 of PC-14/CDDP and the parental cell line PC-14 suspended in physiological saline, then the progress of tumor were observed. On the 7th day from the implantation, tumor condition was checked to select and randomize testable individuals not to cause any deviation, and the selected mice were then divided into a control group and a test group. After each tumor volume was determined based on the formula: (tumor short diameter)^2×(tumor long diameter), administration of drug was started on the seventh day.
(§3) The compound 1 was used as a test compound, 1.2 mg of which was dissolved in 0.05 ml of dimethyl sulfoxide, and then combined with 0.95 ml of 5% sorbitol-0.2% citric acid 1 hydrate solution (pH3.3) to make uniform solution.
(§4) Cisplatin was used as an anticancer drug, and was dissolved in distilled water to prepare 1.6 mg/ml solution.
(§5) The administration process is carried out by simultaneous intravenous injections of 0.05 ml of the test compound and 0.05 ml of the anticancer-drug solution once a day on the 7th, 11th, 15th day after the tumor implantation. For the control group, 0.1 ml of physiological saline was administered by intravenous injection, and for the group to be administered only the anticancer drug, 0.05 ml of the anticancer-drug solution and 0.05 ml of physiological saline were administered by intravenous injection. One dose of the test compound was 3 mg/kg, and one dose of the anticancer drug was 4 mg/kg. During the administration of the drug, physical status of the whole body of the mice was observed, and the weight and the long/short lengths of tumor were measured. Tumor growth rate (GR) and effect of inhibiting cancer (lowest T/C) were calculated based on the following formulas, respectively. [formula] [formula]

[6] = test system: B16a cell and B16a-Pt cell line; conditions: B16a cell and cisplatin-resistant B16a-Pt cell line; cited from earlier work
[7] = test system: KCP-4 cell isolated from human nasopharyngeal cancer KB cells; conditions: KCP-4 cisplatin-resistance cell; cited from earlier work
PC-14 tumor = assay: Tumor growth in nude mice implanted with PC-14; type: in vivo, nude mice BALB/c nu/nu; conditions: for Tumor growth rate GR: 11th
Protocol: as §2, §3, §4, §5

[8] = with compound 1 (final concentration 10 μm), 96 hours
[9] = PC-14, with compound 1 (final concentration 10 μm), 96 hours
[10] = PC-14, without compound 1, 96 hours

[NH2][Pt]1([NH2])[O]CC(=O)[O]1 [nedaplatin]
IC50 [1, 8]: 4.16 ± 1.28 µM
IC50 ([1]; without compound 1, 96 hours): 25.9 ± 8.12 µM
IC50 [2, 9]: 4.36 ± 1.53 µM
IC50 [2, 10]: 7.1 ± 1.53 µM

COc1cccc2c1C(=O)c1c(O)c3c(c(O)c1C2=O)C[C@@](O)(C(=O)CO)C[C@@H]3O[C@H]1C[C@H](N)[C@H](O)[C@H](C)O1 [adriamycin]
IC50 ([3]; K562, K562, with compound 1, n = 1, read-out: 50% cell growth inhibiting concentration (IC50) of adriamycin): 0.004 µM
IC50 ([3]; K562, K562, without compound 1, n = 1, read-out: 50% cell growth inhibiting concentration (IC50) of adriamycin): 0.008 µM
IC50 ([4]; with compound 1, n = 1): 0.166 µM
IC50 ([4]; without compound 1, n = 1): 1.15 µM

COC(=O)C1=C(C#N)NC(C)=C(C(=O)OC(C)C)C1c1cccc([N+](=O)[O-])c1 (centres unmarked) [nilvadipine]
drugs that enhance any significant antitumor effect of cisplatin [5]: none

COc1ccc2c(c1)CN(C(=O)CCN1CCC(Cc3ccccc3)CC1)CCS2 [compound 1, 4-[3-(4-benzylpiperidine-1-yl)propionyl]-7-methoxy-2,3,4,5-tetrahydro-1,4-benzothiazepine]
effect of inhibiting tumor growth together with cisplatin (PC-14/CDDP tumor; nude mice with PC-14/CDDP, compound 1 3 mg/kg with cisplatin 4 mg/kg i.v.): the effect of inhibiting tumor growth in the cisplatin resistant cancer cell line (PC-14/CDDP) was exhibited
effect on resistance and sensitivity to anticancer drugs ([1]; cisplatin resistant lung cancer cell line PC-14/CDDP, compound 1 at 10 μm): shows the effect of reducing the resistance to and increasing the sensitivity to cisplatin, carboplatin, nedaplatin and taxol
effect on resistance and sensitivity to adriamycin ([4]; adriamycin resistant cell line K562/ADM): shows the effect of reducing the resistance to and increasing the sensitivity to adriamycin

CN1CCN(CCCN2c3ccccc3Sc3ccc(C(F)(F)F)cc32)CC1 [trifluoperazine]
enhancement of antitumor effect of cisplatin [6]: do not exhibit any significant enhanced antitumor effect

COC(=O)C1=C(C)NC(C)=C(C(=O)OC2CCCN(Cc3ccccc3)C2)C1c1cccc([N+](=O)[O-])c1 (centres unmarked) [benidipine]
drugs that enhance any significant antitumor effect of cisplatin [5]: none

CC(=O)O[C@H]1C(=O)[C@@]2(C)[C@H]([C@H](OC(=O)c3ccccc3)[C@]3(O)C[C@H](OC(=O)[C@H](O)[C@@H](NC(=O)c4ccccc4)c4ccccc4)C(C)=C1C3(C)C)[C@]1(OC(C)=O)CO[C@@H]1C[C@@H]2O [taxol]
IC50 ([1]; Homo sapiens, PC-14, 96 h, with compound 1 (final concentration 10 μm), 96 hours): 1.73 µM
IC50 ([1]; Homo sapiens, PC-14, 96 h, without compound 1, 96 hours): 5.29 µM
IC50 ([2]; Homo sapiens, PC-14, 96 h, PC-14, with compound 1 (final concentration 10 μm), 96 hours): 0.000663 µM
IC50 ([2]; Homo sapiens, PC-14, 96 h, PC-14, without compound 1, 96 hours): 0.00113 µM

N.N.O=C([O-])C1(C(=O)[O-])CCC1.[Pt+2] [carboplatin]
IC50 [1, 8]: 26.1 ± 7.78 µM
IC50 ([1]; without compound 1, 96 hours): 143 ± 39.1 µM
IC50 [2, 9]: 29.5 ± 11.3 µM
IC50 [2, 10]: 37.1 ± 10.8 µM

N.N.[Cl][Pt][Cl] [cisplatin]
lowest T/C (PC-14/CDDP tumor; 11th day, cisplatin 4 mg/kg i.v. with compound 1 3 mg/kg i.v.): 9.81%
lowest T/C (PC-14/CDDP tumor; 11th day, cisplatin 4 mg/kg i.v., without compound 1): 20.64%
lowest T/C (PC-14/CDDP tumor; 15th day, cisplatin 4 mg/kg i.v. with compound 1 3 mg/kg i.v.): 2.36%
lowest T/C (PC-14/CDDP tumor; 15th day, cisplatin 4 mg/kg i.v., without compound 1): 8.47%
Tumor growth rate GR (PC-14/CDDP tumor; cisplatin 4 mg/kg i.v. on 7th, 15th day, without compound 1): 478.43%
Tumor growth rate GR (PC-14/CDDP tumor; cisplatin 4 mg/kg i.v. with compound 1 3 mg/kg i.v. on 7th, 15th day): 190.52%
resistance of KCP-4 cell to cisplatin [7]: about 63 fold
IC50 [1, 8]: 2.16 ± 1.12 µM
IC50 ([1]; without compound 1, 96 hours): 18.6 ± 2.83 µM
IC50 [2, 9]: 1.77 ± 0.89 µM
IC50 [2, 10]: 2.4 ± 1.05 µM
lowest T/C (PC-14 tumor; 11th day, PC-14, cisplatin 4 mg/kg i.v. with compound 1 3 mg/kg i.v.): 9.76%
lowest T/C (PC-14 tumor; 11th day, PC-14, cisplatin 4 mg/kg i.v., without compound 1): 13.33%
lowest T/C (PC-14 tumor; 15th day, PC-14, cisplatin 4 mg/kg i.v. with compound 1 3 mg/kg i.v.): 6.75%
lowest T/C (PC-14 tumor; 15th day, PC-14, cisplatin 4 mg/kg i.v., without compound 1): 10.52%
Tumor growth rate GR (PC-14 tumor; PC-14, cisplatin 4 mg/kg i.v. on 7th, 15th day, without compound 1): 874.30%
Tumor growth rate GR (PC-14 tumor; PC-14, cisplatin 4 mg/kg i.v. with compound 1 3 mg/kg i.v. on 7th, 15th day): 753.32%

Clc1ccc(C(c2ccc(Cl)cc2)[n+]2ccn(CC(OCc3ccc(Cl)cc3Cl)c3ccc(Cl)cc3Cl)c2)cc1.[Cl-] (centres unmarked) [calmidazilium]
enhancement of antitumor effect of cisplatin [6]: do not exhibit any significant enhanced antitumor effect

COc1ccc(CCN(C)CCCC(C#N)(c2ccc(OC)c(OC)c2)C(C)C)cc1OC (centres unmarked) [verapamil]
drugs that enhance any significant antitumor effect of cisplatin [5]: none
enhancement of antitumor effect of cisplatin [6]: do not exhibit any significant enhanced antitumor effect

COc1ccc([C@@H]2Sc3ccccc3N(CCN(C)C)C(=O)[C@@H]2OC(C)=O)cc1 [diltiazem]
drugs that enhance any significant antitumor effect of cisplatin [5]: none
enhancement of antitumor effect of cisplatin [6]: do not exhibit any significant enhanced antitumor effect
